Paper PMC8624457, “Synthesis and Characterization of the Ethylene-Carbonate-Linked L-Valine Derivatives of 4,4-Dimethylcurcumin with Potential Anticancer Activities” (Molecules, 2021)
Converted amounts (≈) assume the structure as drawn. “And” between values parts separate entries of the source, which are not always exact repeats. Equal values may be shown once. Where a name gives a salt, the structure may show the parent alone.

What was measured:
[1] = system: NCI-H460, NCI-H358 and A549 cell lines; assay: In vitro antiproliferative MTT assay, range over the NSCLC lines; assay type: cell-based; conditions: Homo sapiens, read-out: IC50 values in these cell lines
Protocol: (§1) Human NSCLC cell lines (NCI-H460, NCI-H358 and A549) were obtained from ATCC. All cell lines were grown in RPMI medium supplemented with 10% fetal bovine serum (FBS) and antibiotics and incubated at 37 °C in a humidified atmosphere with 5% CO2.
(§2) Antiproliferative activities to various compounds was assessed using MTT assay. In brief, 2000–5000 cells were seeded in each well of 96-well plates and incubated at 37 °C overnight before drug treatment. After a three-day drug treatment, MTT solution was added to each well and the plates were further incubated at 37 °C for 6 h. Measurement of cell viability was assessed by absorbance at 570 nm. The IC50 values for each drug were determined using CompuSyn software based on the median-effect principle and plot.

NCI-H460 cells = assay: Intracellular uptake and bioconversion by LC-MS of cell extracts; assay type: in vitro ADME, Human; conditions: 10 μM
Protocol: To test our hypothesis, intracellular uptake of DMCU, 1-TFA, and 2-TFA were evaluated in NCI-H460 cells which cells were more sensitive to 1-TFA and 2-TFA than DMCU. The intracellular drug uptake was generally evaluated using a fluorescence microscope or flow cytometry. However, the extremely similar chromophores among DMCU, 1-TFA, and 2-TFA caused failure in detection of individual signals by these two methodologies and therefore drew us to develop a versatile LC-MS based analysis for the cellular uptake evaluations. To estimate the cellular uptake, NCI-H460 cells were treated with each compound for the indicated time periods and the cell extracts were then subjected to LC-MS analysis to determine the intracellular levels of DMCU, 1-TFA, and […] (Figure 4). In the treatment groups, the intracellular levels of each compound were detected by LC-MS where the amount of the compound was quantified by comparing the LC-MS signals of cellular extracts to the corresponding drug calibration curves. […] The maximal uptake levels of 1-TFA and DMCU were detected by 60 ng and 7 ng, respectively, at 60 min after treatment (Figure 4A,B). In 2-TFA treated group, the maximal cellular uptakes occurred during the time interval from 30 to 60 min after drug treatment and acquired 100 ng of DMCU, 12 ng of 1-TFA and 1.2 ng of 2-TFA (Figure 4A–C). […] The cellular uptake efficiency of H460 cells was then evaluated in terms of the total quantity of DMCU, 1-TFA, and 2-TFA. […]

[2] = Water solubility by LC-MS analysis; assay type: physicochemical; conditions: for solubility: 25 °C, thermodynamic from solid, room temperature (25 ± 1 °C)
Excerpt: 1-TFA, and 2-TFA with the linkage of L-valine-TFA side chain on either or both of the phenol groups were expected to show an increment of water solubility. We used LC-MS analysis to determine the water solubility of DMCU, 1-TFA, and 2-TFA. Initially, the LC signals detected by ESI+ mode for each compound were assigned as follows: [M + Na]^+ for DMCU, [M + H]^+ for 1-TFA, and [M + 2H]^2+ for 2-TFA (Figure 3A). The extracted ion chromatogram (XIC) was acquired by extracting the m/z signal of 419.1461 for DMCU, 583.2652 for 1-TFA, and 385.1865 for 2-TFA with a tolerance of ±5 ppm for each sample. The retention time of signals obtained from reverse phase liquid chromatography (RPLC) was 5.15 min (DMCU), 3.97 min (1-TFA), and 3.22 min (2-TFA) (Figure 3B). The limit of quantification was 0.16 ng for DMCU (S/N = 375.81) and 1 ng for 1-TFA (S/N = 231.24) or 2-TFA (S/N = 131.19). […] Next, to determine the water solubility of DMCU, 1-TFA and 2-TFA, aqueous solutions of these compounds at different concentrations were prepared for the generation of corresponding calibration curves.
The quantitative analysis was performed using LC-MS and the results were shown in Figure 3C–E. Corresponding saturated water solutions were prepared and then diluted with ultrapure water for LC-MS analysis. […] For the analysis of DMCU water solubility, a clear solution of DMCU in 40% MeOH and 60% water (with a concentration of 1000 ppm) was prepared and divided into four portions. Each part was diluted with an appropriate amount of ultrapure water, resulting in DMCU precipitates, and the precipitates were then removed by centrifugation to give four samples with theoretical concentrations of 0.8, 4, 20, 100 ppm, respectively. The calculated concentrations of these […] samples were decided by comparing the LC-MS signals of corresponding samples to the calibration curves. (Figure 3F). The maximum concentration of DMCU in water was confirmed as 18 ppm at room temperature.
The stock solutions of 1-TFA and 2-TFA were prepared by dissolving 20 mg of 1-TFA and 2-TFA, respectively, in 1 mL of 1% formic acid(aq). The standard solution of 1-TFA or 2-TFA of 0.5, 1.25, 2.5, 5 and 12.5 μg/mL was prepared by diluting the aforementioned stock solution with an adequate amount of 40% methanol in ultrapure water. The stock solution of DMCU was prepared by dissolving 10 mg of DMCU in 1 mL of methanol. The DMCU stock solution was diluted with 40% methanol in ultrapure water to afford three standard solutions with concentrations of 0.08, 0.4, and 2 μg/mL.
The saturated aqueous solutions of compound 1-TFA and 2-TFA were prepared by a three-steps sequence including supersaturated solution preparation (addition of 20 mg compounds into 50 μL ultrapure water), centrifugation (10 min at 14,000× g), and collection of the resulting supernatants to afford the desired solutions. The saturated aqueous solutions were then diluted by ultrapure water as the ratio of 1 to 100,000 for LC-MS analysis.
The LC-MS system consisted of an ultraperformance liquid chromatography (UPLC) system (ACQUITY UPLC I-Class, Waters, Milford, MA, USA and an ESI/APCI source of 4 kDa quadrupole time-of-flight mass spectrometer (Waters VION, Waters, Milford, MA, USA). A BEH C18 column (2.1 × 100 mm, Walters, Milford, MA, USA) was equipped to perform chromatographic separation. The flow rate of 0.2 mL/min with a column temperature of 35 °C was set for each sample injection. The elution started with 60% mobile phase A (ultrapure water + 0.1% formic acid) and 40% mobile phase B (100% methanol + 0.1% formic acid), then held at 40% B for 0.5 min, raised to 95% B in 5.5 min, held at 95% B for 1 min, and then lowered to 40% B in 1 min. The column was equilibrated by pumping 40% B for 4 min. […]

NCI-H358 = assay: In vitro antiproliferative MTT assay; assay type: cell-based; conditions: Homo sapiens, NCI-H358, 72 h, mean ± SD
Protocol: as §1, §2

NCI-H460 = assay: In vitro antiproliferative MTT assay; assay type: cell-based; conditions: Homo sapiens, NCI-H460, 72 h, mean ± SD
Protocol: as §1, §2

A549 = assay: In vitro antiproliferative MTT assay; assay type: cell-based; conditions: Homo sapiens, A549, 72 h, mean ± SD
Protocol: as §1, §2

[3] = Storage stability by HPLC purity / 1H NMR; assay type: physicochemical; conditions: room temperature
Protocol: The procedures employed for the synthesis of targeted compounds 1 and 2 are depicted in Scheme 1. The required DMCU was prepared according to a three-step sequence reported in the literature. Initially, the commercially available Boc-L-valine 3 was reacted with 2-aminoethanol 4 in the presence of HOTT and Et3N to provide the amide product 5 in 82% yield. Under treatment with 4-nitrophenyl chloroformate and DIPEA, 5 was converted into 6 in 87% yield. One equivalent or excess amount of 6 was coupled with the deprotonated DMCU, formed in situ by the treatment of DMCU with Cs2CO3, to afford compound 7 and 8, respectively. Compound 7 and 8 thus obtained were subjected to Boc deprotection under the standard conditions to give 1 and 2, respectively. The preliminary stability test was performed with NMR by applying 2 as a typical example. […] Based on our previous experience in the synthesis of DMCU-HMP, the instability could be ascribed to the cross-hydrolysis of carbonate group by the terminal amino group of side chain. Salt formation reactions of the N-terminal L-valine were then carried out to cap the nucleophilic amino group. […] 2-TFA is also stable in DMSO solution (0.1 M concentration). After 6-day storage at room temperate, the purity of 2-TFA remained intact. Accordingly, a similar salt formation procedure was employed to produce the stable 1-TFA. Compound 1-TFA along with 2-TFA were then applied for the following evaluations.
Figure 2 The stability assessments of 2 and 2-TFA. (A) A clear solution of 2 in d-chloroform was subjected to a purity assessment by ^1H NMR spectroscopy at various storage times (fresh prepared (≤1 h); 1 day; 4 days). (B) The HPLC purity of fresh prepared 2-TFA was 95.74%. The fresh prepared 2-TFA in a solid state was stored at room temperature for another 6 days and then dissolved in water for HPLC analysis. The HPLC purity was decided as 95.55%. The fresh prepared 2-TFA was dissolved in DMSO and the resulting solution was stored at room temperature for another 6 days. HPLC purity of 2-TFA in the DMSO solution was 94.66%. […]

MDA-MB-231 breast cancer = conditions: cited from earlier work
[4] = system: HCT-116 colon cancer cell; conditions: cited from earlier work

solubility ([2]; water, LC-MS) [mg/mL] | IC50 (NCI-H358) [nM] | IC50 (NCI-H460) [nM] | IC50 (A549) [nM] | fold increased solubility compared to DMCU ([2]; water, room temperature) | SMILES | further results
0.018 (≈ 45.4 µM) | 1620 ± 120 | 2130 ± 160 | 2500 ± 30 | – | COc1cc(/C=C/C(=O)C(C)(C)C(=O)/C=C/c2ccc(O)c(OC)c2)ccc1O [DMCU, 4,4-Dimethylcurcumin] | IC50 [1]: 1620 to 2500 nM; maximal uptake: intracellular DMCU (NCI-H460 cells; DMCU-treated NCI-H460 cells, at 1–2 h post-drug treatment, extract of approx. 1 × 10^6 cells): about 100 ng; maximum concentration in water ([2]; room temperature, dilution of 40% MeOH solution with water, precipitate removed, LC-MS): 18 ppm; water solubility (in words) ([2]; water): virtually insoluble in water
250 | 1920 ± 130 | 1950 ± 160 | 3170 ± 140 | 13,700 fold and > 10,000 fold | COc1cc(/C=C/C(=O)C(C)(C)C(=O)/C=C/c2ccc(OC(=O)OCCNC(=O)[C@@H](N)C(C)C)c(OC)c2)ccc1O [Compound 1-TFA] | maximal uptake level: intracellular 1-TFA (NCI-H460 cells; 1-TFA-treated NCI-H460 cells, at 60 min after treatment): 60 ng
376 | 1260 ± 60 | 1690 ± 40 | 1990 ± 240 | 20,800 fold and > 10,000 fold | COc1cc(/C=C/C(=O)C(C)(C)C(=O)/C=C/c2ccc(OC(=O)OCCNC(=O)[C@@H](N)C(C)C)c(OC)c2)ccc1OC(=O)OCCNC(=O)[C@@H](N)C(C)C [Compound 2-TFA] | HPLC purity after storage in DMSO solution ([3]; DMSO solution (0.1 M), 6 days, fresh prepared 95.74%): 94.66%; HPLC purity after storage as solid ([3]; solid state, 6 days, fresh prepared 95.74%): 95.55%; maximal cellular uptake: intracellular 2-TFA (NCI-H460 cells; 2-TFA-treated NCI-H460 cells, 30 to 60 min after drug treatment): 1.2 ng

The next lines start with the compound.

SMILES | solubility ([2]; water, LC-MS) [mg/mL] | IC50 (NCI-H358) [nM] | IC50 (NCI-H460) [nM] | IC50 (A549) [nM] | fold increased solubility compared to DMCU ([2]; water, room temperature) | further results
COc1cc(/C=C/C(=O)C(C)(C)C(=O)/C=C/c2ccc(OC(=O)OCCNC(=O)[C@@H](N)C(C)C)c(OC)c2)ccc1OC(=O)OCCNC(=O)[C@@H](N)C(C)C [Compound 2] | – | – | – | – | – | stability by 1H NMR (in words) ([3]; solution in d-chloroform, fresh, 1 day, 4 days): gradually degraded into unidentified products
COc1cc(/C=C/C(=O)C(C)(C)C(=O)/C=C/c2ccc(OC(=O)C(C)(CO)CO)c(OC)c2)ccc1OC(=O)C(C)(CO)CO [DMCU-HMP, 4,4-dimethyl substituted curcuminoid 2,2-bis(hydroxymethyl)propionate] | – | – | – | – | – | IC50 (MDA-MB-231 breast cancer): 2200 nM; IC50 [4]: 3100 nM
